From US20230151049A1, “Compounds Useful in HIV Therapy” (priority 2020, published 2023)
Read-outs that look alike come from different tables or passages of the source.

Test: in vivo
From the text: General Protocol for Prodrugs Rat PK Studies Conducted at ChemPartner, China
A total of three naïve male Wistar Han rats, 200-250 g, were received from Beijing VR Laboratory Animal Co. LTD. Following an acclimation period, the animals were assigned to the study based on acceptable health as determined by a staff veterinarian and catheter patency. Fasting of the animals before or after dosing was not required.
On Day 1, each animal received a single intramuscular injection of prepared test article at a target dose level of 20 mg/kg equivalent of EFdA and at a dose volume of 2 mL/kg. The injection sites were at gastrocnemius and identified with an indelible marker for daily monitoring during the study. The animals were manually restrained for dosing and were not sedated. The dose suspension was mixed well by inversion before each dose to ensure homogeneity. […] In addition, all animals are monitored twice daily by the veterinary staff for clinical abnormalities.
Blood samples were collected from the study animals as detailed in the sample collection Table 6 below
Each blood sample for PK (200 μL) was collected from tail vein. The blood was transferred to a tube containing NaF/Na2EDTA anticoagulant and inverted several times to mix. Draw 150 μL whole blood from the tube, add 150 uL 100 mM ammonium acetate, pH 4 buffer and mix well. The resulting blood samples were transferred to individual polypropylene tubes and immediately placed on dry ice until storage at nominally −80° C. prior to LC-MS/MS analysis.

[1] = day 49, single IM Example 1A 20 mg/kg
[2] = day 56, single IM Example 1A 20 mg/kg
[3] = day 63, single IM Example 1A 20 mg/kg
[4] = day 70, single IM Example 1A 20 mg/kg
[5] = day 77, single IM Example 1A 20 mg/kg
[6] = day 84, single IM Example 1A 20 mg/kg
[7] = day 91, single IM Example 1A 20 mg/kg
[8] = day 77, single IM Example 2A 56 mg/kg
[9] = day 84, single IM Example 2A 56 mg/kg

C#C[C@]1(COP(=O)(N[C@@H](Cc2ccccc2)C(=O)OCCCCCCCCCCCCCCCCCCCCCC)Oc2ccccc2)O[C@@H](n2cnc3c(N)nc(F)nc32)C[C@@H]1O (single isomer, unassigned) [Example 1A]
Mean concentration of EFdA (day 21, single IM Example 1A 20 mg/kg): BQL
Mean concentration of EFdA (day 35, single IM Example 1A 20 mg/kg): BQL
Mean concentration of EFdA (day 42, single IM Example 1A 20 mg/kg): BQL
Mean concentration of EFdA [1]: BQL
Mean concentration of Example 1A [1]: BQL (BQL = below quantification limit, 0.3-0.5 ng/mL for Example 1A and 0.1-o.3 ng/mL for EFdA)
Mean concentration of EFdA [2]: BQL
Mean concentration of Example 1A [2]: BQL (BQL = below quantification limit, 0.3-0.5 ng/mL for Example 1A and 0.1-o.3 ng/mL for EFdA)
Mean concentration of EFdA [3]: BQL
Mean concentration of Example 1A [3]: BQL (BQL = below quantification limit, 0.3-0.5 ng/mL for Example 1A and 0.1-o.3 ng/mL for EFdA)
Mean concentration of EFdA [4]: BQL
Mean concentration of Example 1A [4]: BQL (BQL = below quantification limit, 0.3-0.5 ng/mL for Example 1A and 0.1-o.3 ng/mL for EFdA)
Mean concentration of EFdA [5]: BQL
Mean concentration of Example 1A [5]: BQL (BQL = below quantification limit, 0.3-0.5 ng/mL for Example 1A and 0.1-o.3 ng/mL for EFdA)
Mean concentration of EFdA [6]: BQL
Mean concentration of Example 1A [6]: BQL (BQL = below quantification limit, 0.3-0.5 ng/mL for Example 1A and 0.1-o.3 ng/mL for EFdA)
Mean concentration of EFdA [7]: BQL
Mean concentration of Example 1A [7]: BQL (BQL = below quantification limit, 0.3-0.5 ng/mL for Example 1A and 0.1-o.3 ng/mL for EFdA)
concentration at 7 day (male, Wistar Han, rat, in vivo, 20 mg/kg equivalent of EFdA, day 7, single IM Example 1A 20 mg/kg, read-out: Mean concentration of Example 1A): 6.38 ng/mL
concentration at 14 day (male, Wistar Han, rat, in vivo, 20 mg/kg equivalent of EFdA, day 14, single IM Example 1A 20 mg/kg, read-out: Mean concentration of Example 1A): 1.86 ng/mL
concentration at 21 day (male, Wistar Han, rat, in vivo, 20 mg/kg equivalent of EFdA, day 21, single IM Example 1A 20 mg/kg, read-out: Mean concentration of Example 1A): 3.42 ng/mL
concentration at 1 day (male, Wistar Han, rat, in vivo, day 1, single IM Example 1A 20 mg/kg, read-out: Mean concentration of Example 1A): 65.3 ng/mL
concentration at 28 day (male, Wistar Han, rat, in vivo, day 28, single IM Example 1A 20 mg/kg, read-out: Mean concentration of Example 1A): 2.72 ng/mL
concentration at 35 day (male, Wistar Han, rat, in vivo, day 35, single IM Example 1A 20 mg/kg, read-out: Mean concentration of Example 1A): 1.34 ng/mL
concentration at 42 day (male, Wistar Han, rat, in vivo, day 42, single IM Example 1A 20 mg/kg, read-out: Mean concentration of Example 1A): 0.633 ng/mL

C#C[C@]1(COP(=O)(N[C@@H](Cc2ccccc2)C(=O)OCCCCCCCCCCCCCCCCCCCCCC)Oc2ccccc2)O[C@@H](n2cnc3c(N)nc(F)nc32)C[C@@H]1O (single isomer, unassigned) [Example 1B]
Mean concentration of EFdA (day 1, single IM Example 1B 62 mg/kg): BQL (BQL = below quantification limit; 0.3 ng/mL for both)
Mean concentration of EFdA (day 7, single IM Example 1B 62 mg/kg): BQL (BQL = below quantification limit; 0.3 ng/mL for both)
Mean concentration of EFdA (day 14, single IM Example 1B 62 mg/kg): BQL (BQL = below quantification limit; 0.3 ng/mL for both)
Mean concentration of EFdA (day 21, single IM Example 1B 62 mg/kg): BQL (BQL = below quantification limit; 0.3 ng/mL for both)
Mean concentration of EFdA (day 28, single IM Example 1B 62 mg/kg): BQL (BQL = below quantification limit; 0.3 ng/mL for both)
Mean concentration of EFdA (day 35, single IM Example 1B 62 mg/kg): BQL (BQL = below quantification limit; 0.3 ng/mL for both)
Mean concentration of EFdA (day 42, single IM Example 1B 62 mg/kg): BQL (BQL = below quantification limit; 0.3 ng/mL for both)
Mean concentration of EFdA (day 49, single IM Example 1B 62 mg/kg): BQL (BQL = below quantification limit; 0.3 ng/mL for both)
Mean concentration of EFdA (day 56, single IM Example 1B 62 mg/kg): BQL (BQL = below quantification limit; 0.3 ng/mL for both)
Mean concentration of EFdA (day 63, single IM Example 1B 62 mg/kg): BQL (BQL = below quantification limit; 0.3 ng/mL for both)
Mean concentration of EFdA (day 70, single IM Example 1B 62 mg/kg): BQL (BQL = below quantification limit; 0.3 ng/mL for both)
Mean concentration of EFdA (day 77, single IM Example 1B 62 mg/kg): BQL (BQL = below quantification limit; 0.3 ng/mL for both)
Mean concentration of EFdA (day 84, single IM Example 1B 62 mg/kg): BQL (BQL = below quantification limit; 0.3 ng/mL for both)
concentration at 1 day (male, Wistar Han, rat, in vivo, day 1, single IM Example 1B 62 mg/kg, read-out: Mean concentration of Example 1B): 70.5 ng/mL
concentration at 7 day (male, Wistar Han, rat, in vivo, day 7, single IM Example 1B 62 mg/kg, read-out: Mean concentration of Example 1B): 8.75 ng/mL
concentration at 14 day (male, Wistar Han, rat, in vivo, day 14, single IM Example 1B 62 mg/kg, read-out: Mean concentration of Example 1B): 6.78 ng/mL
concentration at 21 day (male, Wistar Han, rat, in vivo, day 21, single IM Example 1B 62 mg/kg, read-out: Mean concentration of Example 1B): 3.53 ng/mL
concentration at 28 day (male, Wistar Han, rat, in vivo, day 28, single IM Example 1B 62 mg/kg, read-out: Mean concentration of Example 1B): 4.36 ng/mL
concentration at 35 day (male, Wistar Han, rat, in vivo, day 35, single IM Example 1B 62 mg/kg, read-out: Mean concentration of Example 1B): 1.72 ng/mL
concentration at 42 day (male, Wistar Han, rat, in vivo, day 42, single IM Example 1B 62 mg/kg, read-out: Mean concentration of Example 1B): 1.92 ng/mL
concentration at 49 day (male, Wistar Han, rat, in vivo, day 49, single IM Example 1B 62 mg/kg, read-out: Mean concentration of Example 1B): 0.912 ng/mL
concentration at 56 day (male, Wistar Han, rat, in vivo, day 56, single IM Example 1B 62 mg/kg, read-out: Mean concentration of Example 1B): 1.33 ng/mL
concentration at 63 day (male, Wistar Han, rat, in vivo, day 63, single IM Example 1B 62 mg/kg, read-out: Mean concentration of Example 1B): 0.748 ng/mL
concentration at 70 day (male, Wistar Han, rat, in vivo, day 70, single IM Example 1B 62 mg/kg, read-out: Mean concentration of Example 1B): 0.767 ng/mL
concentration at 77 day (male, Wistar Han, rat, in vivo, day 77, single IM Example 1B 62 mg/kg, read-out: Mean concentration of Example 1B): 1.55 ng/mL
concentration at 84 day (male, Wistar Han, rat, in vivo, day 84, single IM Example 1B 62 mg/kg, read-out: Mean concentration of Example 1B): 2.48 ng/mL

C#C[C@]1(COP(=O)(N[C@@H](Cc2ccccc2)C(=O)OCCCCCCCCCCCCCCCC)Oc2ccccc2)O[C@@H](n2cnc3c(N)nc(F)nc32)C[C@@H]1O (single isomer, unassigned) [Example 2A]
Mean concentration of Example 2A (day 42, single IM Example 2A 56 mg/kg): BQL
Mean concentration of Example 2A (day 49, single IM Example 2A 56 mg/kg): BQL
Mean concentration of Example 2A (day 70, single IM Example 2A 56 mg/kg): BQL
Mean concentration of EFdA [8]: BQL (BQL = below quantification limit, o.5 ng/mL for Example 2A and 0.1-0.3 ng/mL for EFdA)
Mean concentration of Example 2A [8]: BQL
Mean concentration of EFdA [9]: BQL (BQL = below quantification limit, o.5 ng/mL for Example 2A and 0.1-0.3 ng/mL for EFdA)
Mean concentration of Example 2A [9]: BQL
concentration at 1 day (male, Wistar Han, rat, in vivo, day 1, single IM Example 2A 56 mg/kg, read-out: Mean concentration of Example 2A): 3.54 ng/mL
concentration at 7 day (male, Wistar Han, rat, in vivo, day 7, single IM Example 2A 56 mg/kg, read-out: Mean concentration of Example 2A): 1.35 ng/mL
concentration at 14 day (male, Wistar Han, rat, in vivo, day 14, single IM Example 2A 56 mg/kg, read-out: Mean concentration of Example 2A): 3.35 ng/mL
concentration at 21 day (male, Wistar Han, rat, in vivo, day 21, single IM Example 2A 56 mg/kg, read-out: Mean concentration of Example 2A): 2.42 ng/mL
concentration at 28 day (male, Wistar Han, rat, in vivo, day 28, single IM Example 2A 56 mg/kg, read-out: Mean concentration of Example 2A): 4.08 ng/mL
concentration at 35 day (male, Wistar Han, rat, in vivo, day 35, single IM Example 2A 56 mg/kg, read-out: Mean concentration of Example 2A): 4.53 ng/mL
concentration at 56 day (male, Wistar Han, rat, in vivo, day 56, single IM Example 2A 56 mg/kg, read-out: Mean concentration of Example 2A): 1.14 ng/mL
concentration at 63 day (male, Wistar Han, rat, in vivo, day 63, single IM Example 2A 56 mg/kg, read-out: Mean concentration of Example 2A): 1.05 ng/mL
